# Patent US11325938B2, “CD73 inhibitors” (ORIC Pharmaceuticals, Inc., priority 2018, dated 2022)
# Target: CD73 (Homo sapiens (Human), UniProt P21589)
# Assay: Biochemical assay: inhibition of CD73 activity (AMP hydrolysis, Malachite Green readout)
# Conditions: CD73 0.3208 nM, AMP 15 μM, 25 mM Tris-HCl pH 7.4, RT, absorbance 620 nm
# Description: Example A1: Biochemical Assay
# Assay Reaction Conditions
# • Assay Volume: 70 μl • Reaction Volume: 50 μl • CD73: 0.3208 nM • AMP: 15 μM • Assay Buffer: 25 mM Tris-HCL, pH 7.4, 0.01% Brij-35, 0.01% BSA, 5 mM MgCl2 Assay Procedure:
# Made dose titration of testing compounds in assay buffer, 10 points ½ log titrations in duplicates starting at 100 μM.
# Added 25 μl of CD73 to each well for a final concentration of 320 pM.
# Incubated at RT for 15 min.
# Added 25 μl of AMP to each well for a final concentration of 15 μM.
# Incubated at RT for 10 min.
# Added 10 μl of Malachite Green Reagent A, incubate at RT for 10 min.
# Added 10 of Malachite Green Reagent B, incubate at RT for 45 min.
# Read the Absorbance on Envision plate reader using excitation filter: Cy5 […].
# The ability of the compounds disclosed herein to inhibit CD73 activity was quantified and the respective IC50 values were determined. Table 2 provides the biochemical IC50 values of compounds disclosed herein.
# CD73, sequence (P21589 27-574): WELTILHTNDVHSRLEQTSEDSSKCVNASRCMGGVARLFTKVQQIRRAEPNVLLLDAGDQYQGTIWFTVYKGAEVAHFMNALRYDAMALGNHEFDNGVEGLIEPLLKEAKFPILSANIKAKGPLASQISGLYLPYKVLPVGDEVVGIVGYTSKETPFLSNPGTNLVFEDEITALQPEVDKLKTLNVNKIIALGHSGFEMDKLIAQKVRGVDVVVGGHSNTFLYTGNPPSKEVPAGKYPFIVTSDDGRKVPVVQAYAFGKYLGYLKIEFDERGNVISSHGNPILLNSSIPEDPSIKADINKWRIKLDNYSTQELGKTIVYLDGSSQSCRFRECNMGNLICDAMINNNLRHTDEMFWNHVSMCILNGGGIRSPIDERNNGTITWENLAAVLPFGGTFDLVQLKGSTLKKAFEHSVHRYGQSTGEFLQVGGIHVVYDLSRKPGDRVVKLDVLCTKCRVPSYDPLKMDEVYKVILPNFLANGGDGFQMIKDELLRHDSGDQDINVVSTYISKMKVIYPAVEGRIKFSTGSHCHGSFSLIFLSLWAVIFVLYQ
row,SMILES,IC50 [nM]
1,"C[C@H](O)COc1nc(NC2CCCC2)c2cnn([C@@H]3O[C@H](COC(CO)(CO)P(=O)(O)O)[C@@H](O)[C@H]3O)c2n1 (racemic) [Example 181, rac-(2-(((2R,3S,4R,5R)-5-(4-(cyclopentylamino)-6-((S)-2-hydroxypropoxy)-1H-pyrazolo[3,4-d]pyrimidin-1-yl)-3,4-dihydroxytetrahydrofuran-2-yl)methoxy)-1,3-dihydroxypropan-2-yl)phosphonic acid]",≤ 100
2,"CSCC(C)(OC[C@H]1O[C@@H](n2ncc3c(NC4CCCC4)nc(Cl)nc32)[C@H](O)[C@@H]1O)P(=O)(O)O (stereo partly drawn) [Example 55, (2-(((2R,3S,4R,5R)-5-(6-Chloro-4-(cyclopentylamino)-1H-pyrazolo[3,4-d]pyrimidin-1-yl)-3,4-dihydroxytetrahydrofuran-2-yl)methoxy)-1-(methylthio)propan-2-yl)phosphonic acid]",≤ 100
3,"CC(CO)(OC[C@H]1O[C@@H](n2ncc3c(NC4CCCC4)nc(CCCO)nc32)[C@H](O)[C@@H]1O)P(=O)(O)O (stereo partly drawn) [Example 88, 2-(((2R,3S,4R,5R)-5-(4-(Cyclopentylamino)-6-(3-hydroxypropyl)-1H-pyrazolo[3,4-d]pyrimidin-1-yl)-3,4-dihydroxytetrahydrofuran-2-yl)methoxy)-1-hydroxypropan-2-ylphosphonic acid]",≤ 100
4,"CC(C)(O)C#Cc1nc(NC2CCCC2)c2cnn([C@@H]3O[C@H](COC(CO)(CO)P(=O)(O)O)[C@@H](O)[C@H]3O)c2n1 (racemic) [Example 224, rac-(2-(((2R,3S,4R,5R)-5-(4-(cyclopentylamino)-6-(3-hydroxy-3-methylbut-1-yn-1-yl)-1H-pyrazolo[3,4-d]pyrimidin-1-yl)-3,4-dihydroxytetrahydrofuran-2-yl)methoxy)-1,3-dihydroxypropan-2-yl)phosphonic acid]",≤ 100
5,"COCC(C)(OC[C@H]1O[C@@H](n2ncc3c(NC4CCCC4)nc(CO)nc32)[C@H](O)[C@@H]1O)P(=O)(O)O (stereo partly drawn) [Example 90, (2-(((2R,3S,4R,5R)-5-(4-(Cyclopentylamino)-6-(hydroxymethyl)-1H-pyrazolo[3,4-d]pyrimidin-1-yl)-3,4-dihydroxytetrahydrofuran-2-yl)methoxy)-1-methoxypropan-2-yl)phosphonic acid]",≤ 100
6,"CN(C)CC(C)(OC[C@H]1O[C@@H](n2ncc3c(NC4CCCC4)nc(Cl)nc32)[C@H](O)[C@@H]1O)P(=O)(O)O (stereo partly drawn) [Example 81, (2-(((2R,3S,4R,5R)-5-(6-chloro-4-(cyclopentylamino)-1H-pyrazolo[3,4-d]pyrimidin-1-yl)-3,4-dihydroxytetrahydrofuran-2-yl)methoxy)-1-(dimethylamino)propan-2-yl)phosphonic acid]",> 1000
7,"C[C@](CO)(OC[C@H]1O[C@@H](n2ncc3c(N[C@@H]4CCc5cc(F)ccc54)nc(Cl)nc32)[C@H](O)[C@@H]1O)P(=O)(O)O [Example 121, ((S)-2-(((2R,3S,4R,5R)-5-(6-chloro-4-(((R)-5-fluoro-2,3-dihydro-1H-inden-1-yl)amino)-1H-pyrazolo[3,4-d]pyrimidin-1-yl)-3,4-dihydroxytetrahydrofuran-2-yl)methoxy)-1-hydroxypropan-2-yl)phosphonic acid]",≤ 100
8,"O=C1CC(OC[C@H]2O[C@@H](n3ncc4c(NC5CCCC5)nc(Cl)nc43)[C@H](O)[C@@H]2O)(P(=O)(O)O)CO1 (mixture of isomers) [Example 186, rac-(3-(((2R,3S,4R,5R)-5-(6-chloro-4-(cyclopentylamino)-1H-pyrazolo[3,4-d]pyrimidin-1-yl)-3,4-dihydroxytetrahydrofuran-2-yl)methoxy)-5-oxotetrahydrofuran-3-yl)phosphonic acid]",≤ 100
9,"O=P(O)(O)C(CO)OC[C@H]1O[C@@H](n2cnc3c(NC4CCCC4)nc(Cl)nc32)[C@H](O)[C@@H]1O (stereo partly drawn) [Example 75, (1-(((2R,3S,4R,5R)-5-(2-chloro-6-(cyclopentylamino)-9H-purin-9-yl)-3,4-dihydroxytetrahydrofuran-2-yl)methoxy)-2-hydroxyethyl)phosphonic acid]",≤ 100
